Laboratory results: patent US9782379B2, “Use of protectin DX for the stimulation of muscular IL-6 secretion” (Universite Laval, priority 2013, dated 2017)

Legend:
[1] = tested on: J774A.1 murine macrophages; assay: macrophages treated with palmitate in vitro; format: cell-based; conditions: 400 μM palmitate, 16 hours
Procedure: J774A.1 murine macrophages were maintained in DMEM (10% FBS) until 80% confluence. A 2 mM palmitate solution or methanol vehicle in alpha-MEM (12% BSA) was added to fresh DMEM (10% FBS) to give a final concentration of 400 μM palmitate. Concomitantly, PDX, RvE1, RvD1 (10 or 100 nM, Cayman chemical), or vehicle was added to the media. After 16 hours, the media was collected and cells were lysed as described for the studies in C2C12 myotubes.
(§1) Snap frozen gastrocnemius muscle and liver from mice were pulverized in liquid nitrogen then lysed overnight at 4° C. in the lysis buffer described for the C2C12 myotube experiments. Immunoblotting of myotube, macrophage, liver and muscle lysates was then performed as previously described^5. Briefly, 50 ug of protein was loaded onto a 7.5% acrylamide gel, subjected to SDS-PAGE then transferred onto nitrocellulose membranes. Membranes were then blocked and probed with the appropriate antibodies. Antibodies for p-Akt ser473, p-JNK thr183/tyr185, JNK, p-AMPK thr172, AMPK, p-STAT-3 ser727 and STAT-3 were obtained from Cell Signaling Technology (MA, USA). Antibodies for total Akt and iNOS were from Santa Cruz Biotechnology (CA, USA) and BD Transduction Laboratories™ (Canada) respectively.
(§2) Chemokines and cytokines were quantified in macrophage media, or mouse plasma using the MILLIPLEX™ MAP mouse cytokine/chemokine kit (Millipore Corporation, MA, USA). Nitrite accumulation in media was determined by Greiss assay as previously described^25. Plasma insulin levels were assessed by RIA (Linco, MI, USA). FFA were measured using an enzymatic colorimetric assay (Wako Chemicals, VA, USA). Skeletal muscle and liver IL-6 were quantified using the mouse IL-6 ELISA kit from R&D systems. Total plasma adiponectin was determined using the ELISA from ALPCO.

[2] = tested on: C2C12 myotubes; assay: IL-6 expression and release and AMPK phosphorylation in cultured C2C12 myotubes; format: cell-based
Procedure: C2C12 myoblasts were maintained in DMEM containing 10% FBS. Differentiation to myotubes was initiated by addition of DMEM containing 2% horse serum. The experiment was conducted 5 days after the addition of the differentiation media. Immediately prior to the commencement of experiments fresh media was added to the cells. Then vehicle or PDX (10, 100, and 1000 nM) was added to the appropriate wells. 30 and 120 minutes after the addition of PDX media was collected and frozen for IL-6 quantification and cells were washed in ice cold PBS. For extraction of mRNA cells were then lysed and scraped in 300 μl of RLT buffer (QIAGEN). For examination of AMPK activity cells were lysed and scraped in 200 μl of ice cold lysis buffer containing 50 mM HEPES pH7.5, 150 mM NaCl, 1 mM EGTA, 20 mM b-glycerophosphate, 1% NP40, 10 mM NaF, 2 mM Na3VO4, 1× protease inhibitor cocktail (Sigma).
as §1
RNA was extracted from C2C12 myotubes using an RNeasy® mini kit from QIAGEN. RNA from homogenized liver tissue was extracted using an RNeasy® fibrous tissue mini kit from QIAGEN. RNA was then reverse transcribed to cDNA using the high-capacity cDNA reverse transcription kit from applied biosystems. Real-time PCR for Ppargc1, Pck1, G6Pc, and GAPDH was then performed using Taqman assay on demand probes and primers from Applied Biosystems in a CFX96 real-time system from BIO-RAD. The relative expression of genes of interest was then determined by normalization to the housekeeping gene GAPDH using the comparative CT method for relative gene expression^30.
as §2

[3] = tested on: T37i brown adipocytes; assay: IL-6 release from cultured brown adipocytes; format: cell-based; conditions: norepinephrine 1 μM as adrenergic stimulus
From the text: Since brown adipose tissue was recently shown to regulate glucose homeostasis via secretion of IL-6^20 we also examined whether PDX might raise circulating IL-6 by stimulating brown fat.

[4] = tested on: wild-type (WT) C57BL/6J control mice; assay: second paired saline/lipid infusion 2.5 mU/kg/min hyperinsulinemic-euglycemic clamp, wild-type mice; format: in vivo
Procedure: (§3) For the second paired lipid infusion HIE clamp study, 10 week old male B6.129S2-ll6^tmkopf/J (IL-6 KO) and control C57BL/6J (WT) mice from Jackson Labs were used. Mice from each genetic background were randomly assigned to saline-vehicle, saline-PDX, lipid-vehicle and lipid-PDX groups. The lipid-infusion clamp study was performed as described above, except the clamp was performed with a 2.5 mU·kg^−1·min^−1 insulin infusion as per^29.
(§4) To confirm the involvement of IL-6 in the beneficial effects of PDX we performed a second round of paired lipid infusion hyperinsulinemic-euglycemic clamp studies in IL-6 null (KO) mice alongside wild-type (WT) C57BL/6J control mice. Saline-infused mice treated with PDX were added to the study to ascertain whether PDX also improves glucose metabolism in insulin-sensitive mice. To ensure detection of potential differences between insulin-sensitive saline-infused animals we performed 2.5mU/kg/min rather than 4 mU/kg/min clamps.

[5] = tested on: IL-6 null (KO) mice; assay: second paired saline/lipid infusion 2.5 mU/kg/min hyperinsulinemic-euglycemic clamp, IL-6 null mice; format: in vivo
Procedure: as §3, §4

[6] = highest dose, within 2 h, P<0.01
[7] = saline and lipid-infused WT mice, P<0.05
[8] = saline and lipid-infused KO mice

With CC/C=C\C[C@H](O)/C=C/C=C\C=C\[C@@H](O)C/C=C\C/C=C\CCC(=O)O [PDX, 10S,17S-dihydroxy-docosa-4Z,7Z,11E,13Z,15E,19Z-hexaeonic acid] the “iNOS and JNK activation” value [1] was “effectively suppresses”, the “lipid-induced IL-6 production” value [1] was “actually suppresses” and the “lipid-induced secretion of CCL2/MCP-1, CCL5/RANTES, TNFα, IL-2, and IL-10” value ([1]; PDX 10 or 100 nM) was “effectively suppresses”. For the same compound, the “IL-6 release from muscle cells” value ([2]; 100 nM of each lipid mediator vs vehicle) was “prompted IL-6 release”, the AMPK phosphorylation ([2]; 30 minutes) was “promotes AMPK phosphorylation” and the “IL-6 release in the media” value ([2]; 30 minutes) was “no IL-6 release can be detected”. The “phosphorylation of AMPK” value ([2]; 2 h, P<0.05) was “detected”, the “increase in IL-6 mRNA expression” value [2, 6] was “more than 2 fold” and the “increase in IL-6 secretion (accumulation in media)” value [2, 6] was “more than 2 fold”. For the same compound, the “release of IL-6” value [3] was “not able to stimulate”, the Akt phosphorylation ([4]; insulin sensitive saline infused mice) was “without raising” and the hepatic insulin action ([4]; lipid-infused WT mice, P<0.001) was “improved”. The “suppression of Ppargc1, Pck1 and G6Pc (liver mRNA)” value ([4]; lipid-infused WT mice, P<0.01, P<0.05, p<0.001) was “significantly improved the suppression”, the peripheral insulin action ([4]; lipid-infused WT mice, P<0.05) was “improved” and the GIR [4, 7] was “significantly enhanced”. The pre-clamp glycemia [4, 7] was “significant fall”, the “transcriptional repression of PEPCK (liver)” value ([4]; saline-infused WT mice, P<0.01) was “additive effect” and the hepatic insulin action ([4]; saline-infused WT mice, P<0.05) was “superior hepatic insulin action”. The “suppression of G6Pc (liver)” value ([4]; saline-infused WT mice, P=0.0614) was “tended to improve”, the peripheral glucose disposal ([4]; saline-infused mice) was “did not increase” and the “suppression of PGC-1α (liver mRNA)” value ([4]; saline-infused mice) was “not associated with further suppression”. For the same compound, the “activation of hepatic STAT-3” value ([5]; KO mice, saline and lipid-infused) was “completely absent”, the “lipid-induced elevations in circulating TNFa” value ([5]; lipid-infused IL-6 KO mice, P<0.001) was “potently suppress” and the “effect on hepatic insulin action” value ([5]; lipid-infused KO mice) was “only partially lost”. The “effect on peripheral insulin action” value ([5]; lipid-infused KO mice) was “completely absent”, the “effects on suppression of Ppargc1, Pck1 and G6Pc” value ([5]; lipid-infused KO mice) was “entirely absent” and the “stimulatory effect on AMPK phosphorylation (muscle)” value ([5]; lipid-infused KO mice) was “fully maintained”. For the same compound, the “IL-6 in skeletal muscle” value [5, 8] was “failed to raise”, the “effect on pre-clamp glycemia” value [5, 8] was “completely absent” and the “enhancement of GIR” value [5, 8] was “this was not the case”. For the same compound, the “effect on hepatic insulin action” value ([5]; saline-infused KO mice) was “completely absent”, the “effect on transcriptional repression of PEPCK” value ([5]; saline-infused KO mice) was “completely absent” and the “improved suppression of G6Pc” value ([5]; saline-infused KO mice) was “this was not the case”.
